This is an account of results in patent publication US8309734B2 (Hoffmann-La Roche Inc., priority 2008, dated 2012).

Molecules are shown by their SMILES.

Usually EC50 stands for the concentration giving half of the maximal effect. Read a low EC50 as a more potent agent.

The target in the test is T1, human GPBAR1 receptor (Homo sapiens, UniProt Q8TDU6).
T1 construct: expressed in transfected cells
T1 sequence (Q8TDU6 1-330): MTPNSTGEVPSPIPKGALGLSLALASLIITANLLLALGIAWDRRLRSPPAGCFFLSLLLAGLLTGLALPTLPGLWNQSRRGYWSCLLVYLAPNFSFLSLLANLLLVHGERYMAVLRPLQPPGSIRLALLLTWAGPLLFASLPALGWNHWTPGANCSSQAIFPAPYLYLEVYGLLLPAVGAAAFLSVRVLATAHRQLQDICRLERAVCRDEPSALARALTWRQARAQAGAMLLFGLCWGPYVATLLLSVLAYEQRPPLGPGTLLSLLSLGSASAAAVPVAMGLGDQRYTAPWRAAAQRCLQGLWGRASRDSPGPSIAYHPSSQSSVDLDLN
As to the kind of experiment: functional cAMP assay in CHO-dhfr(minus) cells expressing human GPBAR1 receptors. The format is cell-based. The following applies: cAMP increase (TR-FRET) in CHO-dhfr(minus) cells expressing human GPBAR1; compounds incubated 30 min at 30° C.
With `O=C(c1cc(F)cnc1Oc1cc(Cl)ccc1Cl)N1CCCc2ccccc21` [Example 83, [2-(2,5-Dichloro-phenoxy)-5-fluoro-pyridin-3-yl]-(3,4-dihydro-2H-quinolin-1-yl)-methanone], a half-maximal effect (EC50) was put at 13 nM.
The result for `CCN(C(=O)c1cc(F)cnc1Oc1cc(Cl)ccc1Cl)c1ccccc1` [Example 84, 2-(2,5-Dichloro-phenoxy)-N-ethyl-5-fluoro-N-phenyl-nicotinamide] reads 686 nM; that for `O=C(c1cc(F)cnc1Oc1cccc(Cl)c1)N1CCCc2cc(F)c(F)cc21` [Example 85, [2-(3-Chloro-phenoxy)-5-fluoro-pyridin-3-yl]-(6,7-difluoro-3,4-dihydro-2H-quinolin-1-yl)-methanone], 231 nM.
As for `O=C(c1cc(F)cnc1Oc1ccc(F)c(Cl)c1)N1CCCc2ccccc21` [Example 86, [2-(3-Chloro-4-fluoro-phenoxy)-5-fluoro-pyridin-3-yl]-(3,4-dihydro-2H-quinolin-1-yl)-methanone], the figure is 96 nM; as for `O=C(c1cc(F)cnc1Oc1ccc(F)c(Cl)c1)N1CCCc2cc(F)c(F)cc21` [Example 87, [2-(3-Chloro-4-fluoro-phenoxy)-5-fluoro-pyridin-3-yl]-(6,7-difluoro-3,4-dihydro-2H-quinolin-1-yl)-methanone], 75 nM; as for `Cc1cccc2c1N(C(=O)c1cc(F)cnc1Oc1ccc(F)c(Cl)c1)CCC2` [Example 88, [2-(3-Chloro-4-fluoro-phenoxy)-5-fluoro-pyridin-3-yl]-(8-methyl-3,4-dihydro-2H-quinolin-1-yl)-methanone], 950 nM.
As for `O=C(c1ccncc1Oc1cc(Cl)ccc1Cl)N1CCCc2ccccc21` [Example 89, [3-(2,5-Dichloro-phenoxy)-pyridin-4-yl]-(3,4-dihydro-2H-quinolin-1-yl)-methanone], the figure is 7 nM.
Consider `O=C(c1ccncc1Oc1cc(Cl)ccc1Cl)N1CCCc2ccc(F)cc21` [Example 90, [3-(2,5-Dichloro-phenoxy)-pyridin-4-yl]-(7-fluoro-3,4-dihydro-2H-quinolin-1-yl)-methanone], for which it took 19 nM to reach a half-maximal effect (EC50).
As for `O=C(c1ccncc1Oc1cc(Cl)ccc1Cl)N1CCCc2cc(F)ccc21` [Example 91, [3-(2,5-Dichloro-phenoxy)-pyridin-4-yl]-(6-fluoro-3,4-dihydro-2H-quinolin-1-yl)-methanone], the figure is 15 nM.
The result for `O=C(c1ccncc1Oc1cc(Cl)ccc1Cl)N1CCCc2cc(F)cc(F)c21` [Example 92, [3-(2,5-Dichloro-phenoxy)-pyridin-4-yl]-(6,8-difluoro-3,4-dihydro-2H-quinolin-1-yl)-methanone] reads 7 nM; that for `Cc1ccccc1N(C)C(=O)c1ccncc1Oc1cc(Cl)ccc1Cl` [Example 93, 3-(2,5-Dichloro-phenoxy)-N-methyl-N-o-tolyl-isonicotinamide], 57 nM; that for `CN(C(=O)c1ccncc1Oc1cc(Cl)ccc1Cl)c1ccccc1Cl` [Example 94, N-(2-Chloro-phenyl)-3-(2,5-dichloro-phenoxy)-N-methyl-isonicotinamide], 157 nM.
`COc1ccccc1N(C)C(=O)c1ccncc1Oc1cc(Cl)ccc1Cl` [Example 95, 3-(2,5-Dichloro-phenoxy)-N-(2-methoxy-phenyl)-N-methyl-isonicotinamide] came in with an EC50 of 28 nM.
`O=C(c1ccncc1Oc1ccc(Cl)cc1Cl)N1CCCc2ccc(F)cc21` [Example 96, [3-(2,4-Dichloro-phenoxy)-pyridin-4-yl]-(7-fluoro-3,4-dihydro-2H-quinolin-1-yl)-methanone] had an EC50 of 328 nM.
`O=C(c1ccncc1Oc1ccc(Cl)cc1Cl)N1CCCc2cc(F)cc(F)c21` [Example 98, [3-(2,4-Dichloro-phenoxy)-pyridin-4-yl]-(6,8-difluoro-3,4-dihydro-2H-quinolin-1-yl)-methanone] gave an EC50 of 217 nM.
As for `Cc1ccccc1N(C)C(=O)c1ccncc1Oc1ccc(Cl)cc1Cl` [Example 99, 3-(2,4-Dichloro-phenoxy)-N-methyl-N-o-tolyl-isonicotinamide], the figure is 388 nM; as for `CN(C(=O)c1ccncc1Oc1ccc(Cl)cc1Cl)c1ccccc1Cl` [Example 100, N-(2-Chloro-phenyl)-3-(2,4-dichloro-phenoxy)-N-methyl-isonicotinamide], 1050 nM; as for `COc1ccccc1N(C)C(=O)c1ccncc1Oc1ccc(Cl)cc1Cl` [Example 101, 3-(2,4-Dichloro-phenoxy)-N-(2-methoxy-phenyl)-N-methyl-isonicotinamide], 150 nM.
The compound `COc1ncccc1N(C)C(=O)c1ccncc1Oc1ccc(Cl)cc1Cl` [Example 102, 3-(2,4-Dichloro-phenoxy)-N-(2-methoxy-pyridin-3-yl)-N-methyl-isonicotinamide] yielded an EC50 of 703 nM. Against the preceding compound, the EC50 is about 4.7-fold higher.
The result for `O=C(c1ccncc1Oc1ccc(F)c(Cl)c1)N1CCCc2ccc(F)cc21` [Example 103, [3-(3-Chloro-4-fluoro-phenoxy)-pyridin-4-yl]-(7-fluoro-3,4-dihydro-2H-quinolin-1-yl)-methanone] reads 299 nM.
The result for `O=C(c1ccncc1Oc1ccc(F)c(Cl)c1)N1CCCc2cc(F)ccc21` [Example 104, [3-(3-Chloro-4-fluoro-phenoxy)-pyridin-4-yl]-(6-fluoro-3,4-dihydro-2H-quinolin-1-yl)-methanone] reads 173 nM.
As for `O=C(c1ccncc1Oc1ccc(F)c(Cl)c1)N1CCCc2cc(F)cc(F)c21` [Example 105, [3-(3-Chloro-4-fluoro-phenoxy)-pyridin-4-yl]-(6,8-difluoro-3,4-dihydro-2H-quinolin-1-yl)-methanone], the figure is 138 nM; as for `Cc1ccccc1N(C)C(=O)c1ccncc1Oc1ccc(F)c(Cl)c1` [Example 106, 3-(3-Chloro-4-fluoro-phenoxy)-N-methyl-N-o-tolyl-isonicotinamide], 425 nM; as for `CN(C(=O)c1ccncc1Oc1ccc(F)c(Cl)c1)c1ccccc1Cl` [Example 107, 3-(3-Chloro-4-fluoro-phenoxy)-N-(2-chloro-phenyl)-N-methyl-isonicotinamide], 662 nM.
Take `COc1ccccc1N(C)C(=O)c1ccncc1Oc1ccc(F)c(Cl)c1` [Example 108, 3-(3-Chloro-4-fluoro-phenoxy)-N-(2-methoxy-phenyl)-N-methyl-isonicotinamide]: it took 122 nM to reach a half-maximal effect (EC50).
In turn, `COc1ncccc1N(C)C(=O)c1ccncc1Oc1ccc(F)c(Cl)c1` [Example 109, 3-(3-Chloro-4-fluoro-phenoxy)-N-(2-methoxy-pyridin-3-yl)-N-methyl-isonicotinamide] displayed an EC50 of 562 nM.
For the compound `O=C(c1ccccc1Oc1cc(Cl)ccc1Cl)N1CCCc2ccccc21` [Example 110, [2-(2,5-Dichloro-phenoxy)-phenyl]-(3,4-dihydro-2H-quinolin-1-yl)-methanone], a half-maximal response (EC50) required 29 nM. This EC50 is about 19-fold lower than that of the compound before.
The result for `O=C(c1ccccc1Oc1cc(Cl)ccc1Cl)N1CCCc2cc(F)c(F)cc21` [Example 111, [2-(2,5-Dichloro-phenoxy)-phenyl]-(6,7-difluoro-3,4-dihydro-2H-quinolin-1-yl)-methanone] reads 102 nM; that for `CC1Cc2ccccc2N1C(=O)c1ccccc1Oc1cc(Cl)ccc1Cl` (centres unmarked) [Example 112, [2-(2,5-Dichloro-phenoxy)-phenyl]-(2-methyl-2,3-dihydro-indol-1-yl)-methanone], 1710 nM; that for `O=C(c1cc(F)ccc1Oc1cc(Cl)ccc1Cl)N1CCCc2ccccc21` [Example 113, [2-(2,5-Dichloro-phenoxy)-5-fluoro-phenyl]-(3,4-dihydro-2H-quinolin-1-yl)-methanone], 149 nM.
As for `CC1CCc2ccccc2N1C(=O)c1cc(F)ccc1Oc1cc(Cl)ccc1Cl` (centres unmarked) [Example 114, [2-(2,5-Dichloro-phenoxy)-5-fluoro-phenyl]-(2-methyl-3,4-dihydro-2H-quinolin-1-yl)-methanone], the figure is 946 nM; as for `Cc1cccc2c1N(C(=O)c1cc(F)ccc1Oc1cc(Cl)ccc1Cl)CCC2` [Example 115, [2-(2,5-Dichloro-phenoxy)-5-fluoro-phenyl]-(8-methyl-3,4-dihydro-2H-quinolin-1-yl)-methanone], 920 nM.
Take `Cc1ccc2c(c1)CCCN2C(=O)c1cc(F)ccc1Oc1cc(Cl)ccc1Cl` [Example 116, [2-(2,5-Dichloro-phenoxy)-5-fluoro-phenyl]-(6-methyl-3,4-dihydro-2H-quinolin-1-yl)-methanone]: a half-maximal effect (EC50) was put at 1160 nM.
As for `O=C(c1cc(F)ccc1Oc1cc(Cl)ccc1Cl)N1CCOc2ccccc21` [Example 117, [2-(2,5-Dichloro-phenoxy)-5-fluoro-phenyl]-(2,3-dihydro-benzo[1,4]oxazin-4-yl)-methanone], the figure is 572 nM.
The result for `CN(C(=O)c1cc(F)ccc1Oc1cc(Cl)ccc1Cl)c1ccccc1` [Example 118, 2-(2,5-Dichloro-phenoxy)-5-fluoro-N-methyl-N-phenyl-benzamide] reads 771 nM; that for `N#Cc1ccc(Oc2cc(Cl)ccc2Cl)c(C(=O)N2CCCc3ccccc32)c1` [Example 119, 4-(2,5-Dichloro-phenoxy)-3-(3,4-dihydro-2H-quinoline-1-carbonyl)-benzo nitrile], 165 nM.
As for `Cc1cc(F)c2c(c1)CCCN2C(=O)c1ccccc1Oc1cc(Cl)ccc1Cl` [Example 120, [2-(2,5-Dichloro-phenoxy)-phenyl]-(8-fluoro-6-methyl-3,4-dihydro-2H-quinolin-1-yl)-methanone], the figure is 1650 nM; as for `O=C(c1ccccc1Oc1cc(Cl)ccc1Cl)N1CCCc2cc(F)cc(F)c21` [Example 121, [2-(2,5-Dichloro-phenoxy)-phenyl]-(6,8-difluoro-3,4-dihydro-2H-quinolin-1-yl)-methanone], 231 nM.
